# Laboratory results published in publication PMC3853718 (Journal of Translational Medicine, 2013).
# Read-outs that look alike come from different tables or passages of the source.
# Tests used:
# [1] = system: Rb phosphorylation; conditions: cited from earlier work
# [2] = system: mouse xenograft model; conditions: cited from earlier work
# [3] = system: metabolically active sites of disease; assay: FDG-PET/CT tumor metabolic activity (SUVmax); conditions: RP2D 12 mg/m^2, 10 evaluable subjects; responder = SUVmax decrease greater than 30%; 2-sided 95% CI: 0.3%, 44.5%
# Source text: Metabolic activity data were obtained for research use only and were not used for clinical management of subjects.
# [4] = system: Rb protein phosphorylation; assay: Immunohistochemistry for phospho-Rb in skin biopsies; type: in vivo, human
# Procedure: . The phosphorylation status of the Rb protein in the proliferative layer of skin and in the proliferating cells at the base of hair follicles was determined by IHC utilizing a rabbit anti-phospho-Rb antibody diluted to 0.83 μg/mL or 0.67 μg/mL. Immunohistochemistry staining was scored 0 (no staining relative to background), 1+ (weak staining), 2+ (moderate staining), or 3+ (strong staining); H-score was calculated as a measure of overall immunoreactivity in a given sample, using the following formula: H-score = (% of cells with 3+) × 3 + (% of cells with 2+) × 2 + (% of cells with 1+) × 1. Subjects were to be categorized as responders if no degree of staining was detected with the anti-phospho-Rb antibody.
# [5] = system: PHA-stimulated lymphocytes in whole blood; assay: Ex vivo phytohemagglutinin lymphocyte stimulation assay (BrdU incorporation)
# Procedure: Whole blood isolated from subjects was treated with phytohemagglutinin (PHA) to stimulate cell division in lymphocytes. Following a brief 30-minute exposure to bromodeoxyuridine (BrdU), cells were harvested and stained using an FITC-conjugated antibody specific for BrdU, counterstained with propidium iodide/RNase A, and analyzed using a FACSCalibur flow cytometer.
# [6] = system: subjects with advanced malignancies; conditions: human, in vivo, iv, 28 days
# [7] = clinical; conditions: human, plasma
structure (smiles),measurement,setting,value
CCc1cnn2c(NCc3ccc[n+]([O-])c3)cc(N3CCCC[C@H]3CCO)nc12 [dinaciclib],Rb phosphorylation in mouse skin biopsies,[1]; 2 hours post treatment,partial loss
same,Rb phosphorylation in mouse skin biopsies,[1]; 4 hours post treatment,complete loss of Rb phosphorylation
same,"minimum effective dose, defined as >50% tumor growth inhibition",[2],5 mg/kg
same,PET/CT response rate,[3],10.0%
same,mean phospho-Rb H score following treatment,"[4]; RP2D 12 mg/m^2, 11 subjects, skin biopsy 4 hours after treatment, before treatment 18.55",17.64
same,response based on phospho-Rb staining,[4]; responder = complete loss of phospho-Rb staining,no subjects were deemed to have achieved a response
same,plasma concentration at which BrdU incorporation was completely inhibited,"[5]; 46 subjects, 0.33 to 14 mg/m^2",> 200 ng/mL
same,BrdU response rate,"[5]; RP2D 12 mg/m^2, 7 evaluable subjects, responder = less than 5% BrdU incorporation, 2-sided 95% CI: 59%, 100%",100%
same,Mean percent difference in BrdU uptake (95% CI),"[5]; RP2D 12 mg/m^2, Day 1, Predose – 2 hours, 7 patients","10.72 (4.69, 16.75) percent"
same,Mean percent difference in BrdU uptake (95% CI),"[5]; RP2D 12 mg/m^2, Day 1, Predose – 3 hours, 7 patients","9.28 (1.44, 17.13) percent"
same,Mean percent difference in BrdU uptake (95% CI),"[5]; RP2D 12 mg/m^2, Day 1, Predose – 4 hours, 7 patients","6.05 (-4.03, 16.12) percent"
same,Mean percent difference in BrdU uptake (95% CI),"[5]; RP2D 12 mg/m^2, Day 1, Predose – 6 hours, 7 patients","10.16 (3.89, 16.43) percent"
same,Mean percent difference in BrdU uptake (95% CI),"[5]; RP2D 12 mg/m^2, Day 1, Predose – 8 hours, 6 patients","8.76 (2.87, 14.65) percent"
same,Mean percent difference in BrdU uptake (95% CI),"[5]; RP2D 12 mg/m^2, Day 15, Predose – 2 hours, 7 patients","14.82 (6.02, 23.61) percent"
same,Mean percent difference in BrdU uptake (95% CI),"[5]; RP2D 12 mg/m^2, Day 15, Predose – 4 hours, 7 patients","5.47 (-4.17, 15.12) percent"
same,Mean percent difference in BrdU uptake (95% CI),"[5]; RP2D 12 mg/m^2, Day 15, Predose – 8 hours, 5 patients","16.48 (5.63, 27.34) percent"
same,BrdU incorporation,"[5]; majority of samples, at plasma concentration of 100 ng/mL",less than 5%
same,recommended phase 2 dose (RP2D),[6],12 mg/m^2
same,AUC(0-inf),"[7]; intravenous, 0.33 mg/m2",43 ng·h/mL
same,AUC(0-t),"[7]; intravenous, 0.33 mg/m2",42.8 ng·h/mL
same,Cmax,"[7]; intravenous, 0.33 mg/m2",11.1 ng/mL
same,Tmax,"[7]; intravenous, 0.33 mg/m2",1 h
same,AUC(0-inf),"[7]; intravenous, 0.66 mg/m2",27.6 ng·h/mL
same,AUC(0-t),"[7]; intravenous, 0.66 mg/m2",28.4 ng·h/mL
same,Cmax,"[7]; intravenous, 0.66 mg/m2",13.2 ng/mL
same,Tmax,"[7]; intravenous, 0.66 mg/m2",1 h
same,half-life,"[7]; intravenous, 0.66 mg/m2",100 min
same,AUC(0-inf),"[7]; intravenous, 1.32 mg/m2",134 ng·h/mL
same,AUC(0-t),"[7]; intravenous, 1.32 mg/m2",134 ng·h/mL
same,Cmax,"[7]; intravenous, 1.32 mg/m2",69.5 ng/mL
same,Tmax,"[7]; intravenous, 1.32 mg/m2",1 h
same,half-life,"[7]; intravenous, 1.32 mg/m2",203 min
same,AUC(0-inf),"[7]; intravenous, 1.85 mg/m2",216 ng·h/mL
same,AUC(0-t),"[7]; intravenous, 1.85 mg/m2",216 ng·h/mL
same,Cmax,"[7]; intravenous, 1.85 mg/m2",108 ng/mL
same,Tmax,"[7]; intravenous, 1.85 mg/m2",2 h
same,half-life,"[7]; intravenous, 1.85 mg/m2",160 min
same,Cmax,"[7]; intravenous, 2.59 mg/m2",104 ng/mL
same,Tmax,"[7]; intravenous, 2.59 mg/m2",1 h
same,half-life,"[7]; intravenous, 2.59 mg/m2",216 min
same,AUC(0-inf),"[7]; intravenous, 3.63 mg/m2",431 ng·h/mL
same,AUC(0-t),"[7]; intravenous, 3.63 mg/m2",405 ng·h/mL
same,Cmax,"[7]; intravenous, 3.63 mg/m2",163 ng/mL
same,Tmax,"[7]; intravenous, 3.63 mg/m2",1 h
same,half-life,"[7]; intravenous, 3.63 mg/m2",215 min
same,AUC(0-inf),"[7]; intravenous, 5.08 mg/m2",327 ng·h/mL
same,AUC(0-t),"[7]; intravenous, 5.08 mg/m2",327 ng·h/mL
same,Cmax,"[7]; intravenous, 5.08 mg/m2",173 ng/mL
same,Tmax,"[7]; intravenous, 5.08 mg/m2",2 h
same,half-life,"[7]; intravenous, 5.08 mg/m2",191 min
same,AUC(0-inf),"[7]; intravenous, 7.11 mg/m2",543 ng·h/mL
same,AUC(0-t),"[7]; intravenous, 7.11 mg/m2",542 ng·h/mL
same,Cmax,"[7]; intravenous, 7.11 mg/m2",250 ng/mL
same,Tmax,"[7]; intravenous, 7.11 mg/m2",2 h
same,half-life,"[7]; intravenous, 7.11 mg/m2",182 min
same,AUC(0-inf),"[7]; intravenous, 10 mg/m2",687 ng·h/mL
same,AUC(0-t),"[7]; intravenous, 10 mg/m2",694 ng·h/mL
same,Cmax,"[7]; intravenous, 10 mg/m2",319 ng/mL
same,Tmax,"[7]; intravenous, 10 mg/m2",2 h
same,half-life,"[7]; intravenous, 10 mg/m2",181 min
same,AUC(0-inf),"[7]; intravenous, 12 mg/m2",1150 ng·h/mL
same,AUC(0-t),"[7]; intravenous, 12 mg/m2",1150 ng·h/mL
same,Cmax,"[7]; intravenous, 12 mg/m2",525 ng/mL
same,Tmax,"[7]; intravenous, 12 mg/m2",2 h
same,half-life,"[7]; intravenous, 12 mg/m2",197 min
same,AUC(0-inf),"[7]; intravenous, 14 mg/m2",2020 ng·h/mL
same,AUC(0-t),"[7]; intravenous, 14 mg/m2",2020 ng·h/mL
same,Cmax,"[7]; intravenous, 14 mg/m2",821 ng/mL
same,Tmax,"[7]; intravenous, 14 mg/m2",1 h
same,half-life,"[7]; intravenous, 14 mg/m2",185 min
same,half-life,[7]; iv,90 to 216 min
